This is an account of results in ChEMBL document CHEMBL5579854, “Targeting Relevant HDACs to Support the Survival of Cone Photoreceptors in Inherited Retinal Diseases: Identification of a Potent Pharmacological Tool with In Vitro and In Vivo Efficacy” (J Med Chem, 2024).

Data set [1] deals with 661W. Briefly: Cytoprotective effect against H2O2-induced oxidative stress in mouse 661W cells assessed as increase in acetylated histone H3 level at 5 uM incubated for 24 hrs followed by H2O2 treatment for 3 hrs by Western blot analysis. The class given is functional, cell-based. The following applies: time 27.0 hrs. (In general: In western blotting, separated proteins are transferred to a membrane and probed.)

Data set [2] relates to 661W. Briefly: Cytoprotective effect against H2O2-induced oxidative stress in mouse 661W cells assessed as increase in acetylated alpha-tubulin level incubated for 24 hrs followed by H2O2 treatment for 3 hrs by Western blot analysis. As to conditions: dose 10-30 µM, time 27.0 hrs. The data set is classed as functional, cell-based.
Data set [3] relates to ARPE-19. Briefly: Cytoprotective effect against H2O2-induced oxidative stress in human ARPE-19 cells assessed as increase in cell viability at low concentration incubated for 24 hrs followed by H2O2 treatment by MTT assay. The data set is classed as functional, cell-based. A general note: Formazan colour is commonly taken as a measure of viable cells.
Data set [4] concerns Cone cell. Kind of data set: Induction of cone cell survival in eyes of C57BL/6J mouse model harboring rd10 mutant at 5 to 30 uM, IVT administered bilaterally measured after 5 days by IHC analysis. The data set is classed as functional, tissue-based. The following applies: Eye, dose 5-30 µM, time 5.0 day.
Another data set addresses T1, Cytochrome P450 1A (Homo sapiens, UniProt P04798+P05177).
T1 sequence (P04798 whole entry): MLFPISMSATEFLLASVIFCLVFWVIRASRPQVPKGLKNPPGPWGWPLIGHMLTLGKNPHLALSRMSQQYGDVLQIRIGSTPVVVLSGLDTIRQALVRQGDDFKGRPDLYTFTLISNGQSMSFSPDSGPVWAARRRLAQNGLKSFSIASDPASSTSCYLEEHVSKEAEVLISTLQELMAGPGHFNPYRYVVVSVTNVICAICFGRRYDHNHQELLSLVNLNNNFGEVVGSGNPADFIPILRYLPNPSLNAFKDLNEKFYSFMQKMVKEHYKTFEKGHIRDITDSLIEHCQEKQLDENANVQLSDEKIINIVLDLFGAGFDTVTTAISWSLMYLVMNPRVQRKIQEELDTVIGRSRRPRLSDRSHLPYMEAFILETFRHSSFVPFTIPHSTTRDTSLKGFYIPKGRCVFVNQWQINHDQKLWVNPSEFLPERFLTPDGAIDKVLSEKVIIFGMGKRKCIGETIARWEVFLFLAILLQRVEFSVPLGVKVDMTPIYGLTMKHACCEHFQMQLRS
T1 sequence (P05177 whole entry): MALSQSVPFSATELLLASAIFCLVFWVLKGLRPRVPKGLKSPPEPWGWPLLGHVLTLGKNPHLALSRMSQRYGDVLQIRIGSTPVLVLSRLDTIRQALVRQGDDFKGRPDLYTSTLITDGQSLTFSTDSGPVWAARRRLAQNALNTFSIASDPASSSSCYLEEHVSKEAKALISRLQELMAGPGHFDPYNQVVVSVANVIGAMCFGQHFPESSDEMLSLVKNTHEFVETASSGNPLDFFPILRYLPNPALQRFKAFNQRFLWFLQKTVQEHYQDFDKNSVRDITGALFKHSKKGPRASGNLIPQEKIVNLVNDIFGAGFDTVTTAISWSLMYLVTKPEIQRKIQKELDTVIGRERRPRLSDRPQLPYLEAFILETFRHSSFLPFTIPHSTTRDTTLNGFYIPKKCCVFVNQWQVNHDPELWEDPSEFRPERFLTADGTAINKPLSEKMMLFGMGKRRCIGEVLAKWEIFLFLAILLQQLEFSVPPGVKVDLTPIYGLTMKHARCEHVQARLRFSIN
Briefly: Inhibition of CYP1A in human liver microsomes using ECOD at 1 to 50 uM measured upto 30 mins by fluorescence based assay. The class given is ADME, Microsome. As to conditions: 0.5 h, dose 1-50 µM.

The test system of data set [5] is Cone cell. Kind of data set: Rescue of cone morphology with numerous longer outer segments in eyes of C57BL/6J mouse model harboring rd10 mutant at 5 to 30 uM, IVT administered bilaterally measured after 5 days by fluorescence microscopy. The class given is functional, tissue-based. The following applies: Eye, dose 5-30 µM, time 5.0 day.
Data set [6] can be described thus: Lipophilicity, logP of compound. As to conditions: octanol/water. The class given is physicochemical.
Data set [7] has as its system Mus musculus. Kind of data set: Rescue of scotopic response in eyes of C57BL/6J mouse model harboring rd10 mutant at 5 to 30 uM, IVT administered bilaterally measured after 5 days by ERG analysis. The class given is functional, tissue-based. As to conditions: Eye, dose 5-30 µM, time 5.0 day.
A short description of data set [8]: Induction of cone cell survival rate in eyes of C57BL/6J mouse model harboring rd10 mutant at 30 uM, IVT administered bilaterally measured after 5 days by fluorescence microscopy relative to control. The data set is classed as functional, Eye. The following applies: time 5 day.
The test system of data set [9] is ARPE-19. Briefly: Cytotoxicity against human ARPE-19 cells assessed as cell viability at 1 uM incubated for 24 hrs by MTT assay. The data set is classed as toxicity, cell-based. As to conditions: arpe-19, 24 h.
The subject of a further data set is Cytochrome P450. Kind of data set: Inhibition of CYP in human liver microsomes using ECOD at 1 to 50 uM measured upto 30 mins by fluorescence based assay. The data set is classed as ADME, Microsome. As to conditions: 0.5 h, dose 1-50 µM.
A short description of data set [10]: Inhibition of CYP1A in mouse liver microsomes using ECOD at 1 to 50 uM measured upto 30 mins by fluorescence based assay. The data set is classed as ADME, Microsome. As to conditions: 0.5 h, dose 1-50 µM. For orientation: Liver microsomes are vesicles of endoplasmic reticulum, rich in cytochrome P450 enzymes.
Data set [11] in a line: Toxicity in zebrafish larval dye model harboring atp6v0e1/ucd6 assessed as morphological abnormalities at 20 to 100 uM treated for 2 days. Set-up: species or system Danio rerio. As to conditions: in vivo, 48 h, dose 20-100 µM, time 2 day.
In data set [12] the test system is Mus musculus. Kind of data set: Upregulation of […] mRNA level in eyes of C57BL/6J mouse model harboring rd10 mutant at 5 to 30 uM, IVT administered bilaterally measured after 5 days by RT-PCR analysis. The class given is functional, tissue-based. The following applies: Eye, dose 5-30 µM, time 5.0 day.
The test system of data set [13] is 661W. Kind of data set: Cytoprotective effect against H2O2-induced oxidative stress in mouse 661W cells assessed as increase in acetylated alpha-tubulin level at 30 uM incubated for 24 hrs followed by H2O2 treatment for 3 hrs by Western blot analysis. The data set is classed as functional, cell-based. The following applies: time 27.0 hrs.
The test system of data set [14] is Mus musculus. Briefly: Upregulation of Hsp90b1 mRNA level in eyes of C57BL/6J mouse model harboring rd10 mutant at 5 to 30 uM, IVT administered bilaterally measured after 5 days by RT-PCR analysis. As to conditions: Eye, dose 5-30 µM, time 5.0 day. The class given is functional, tissue-based.
The nature of data set [15]: Toxicity in Langendorff-perfused Wistar rat heart assessed as effect on QTc prolongation at 0.1 to 30 uM by ECG analysis. As to conditions: dose 0.1-30 µM. The class given is tissue-based.
For data set [16], the species on record is Danio rerio. Kind of data set: Rescue of visual acuity in zebrafish larval dye model harboring atp6v0e1/ucd6 at 100 uM treated for 2 days by OKR analysis. The following applies: time 2.0 day. The data set is classed as functional, organism-based.
The subject of data set [17] is Mus musculus. Briefly: Upregulation of GNAT1 mRNA level in eyes of C57BL/6J mouse model harboring rd10 mutant at 5 to 30 uM, IVT administered bilaterally measured after 5 days by RT-PCR analysis. As to conditions: Eye, dose 5-30 µM, time 5.0 day. The class given is functional, tissue-based.
For data set [18], the system named is Mus musculus. Briefly: Rescue of b-wave amplitude in photopic stimulation in eyes of C57BL/6J mouse model harboring rd10 mutant at 5 to 30 uM, IVT administered bilaterally measured after 5 days by ERG analysis. The data set is classed as functional, tissue-based. The following applies: Eye, dose 5-30 µM, time 5.0 day.
Data set [19] concerns Mus musculus. Kind of data set: Downregulation of Rps6kl1 mRNA level in eyes of C57BL/6J mouse model harboring rd10 mutant at 5 to 30 uM, IVT administered bilaterally measured after 5 days by RT-PCR analysis. The class given is functional, tissue-based. As to conditions: Eye, dose 5-30 µM, time 5.0 day.
For data set [20], the species on record is Danio rerio. Briefly: Rescue of vision in zebrafish larval dye model harboring atp6v0e1/ucd6 at 100 uM treated for 2 days by OKR analysis. The class given is functional, organism-based. The following applies: time 2.0 day.
Data set [21] concerns Mus musculus. Briefly: Upregulation of GNAT2 mRNA level in eyes of C57BL/6J mouse model harboring rd10 mutant at 5 to 30 uM, IVT administered bilaterally measured after 5 days by RT-PCR analysis. The following applies: Eye, dose 5-30 µM, time 5.0 day. The data set is classed as functional, tissue-based.

The logP is a log measure of how a compound divides between an organic and an aqueous phase. A higher logP goes with higher lipophilicity.

Active and inactive are the calls of the source. The rule behind the calls is not given here.

In the case of `O=C(NO)c1ccc(CNC(=O)N2CCc3c(c4ccccc4n3Cc3ccccc3)C2)cc1`, the result in the data set with 661W [1], in the data set on ARPE-19 [3], with Cone cell [4], in the data set on Cone cell [5], in the data set on Mus musculus [7] and in the data set with Mus musculus [12] was Active. For the same compound, the result in the data set with 661W [13], with Mus musculus [14], with Mus musculus [17], in the data set with Mus musculus [18], with Mus musculus [19] and in the data set filed under Danio rerio [20] was Active. For the same compound, the result in the data set on Mus musculus [21] was Active. Besides, the Activity entry in the data set with 661W [2] was “Dose-Dependent Effect”; in [8] it was 17%; in the data set with ARPE-19 [9] it was “Non-Toxic”; in data set [11], “Non-Toxic”; in [15], “Non-Toxic”. Moreover, the “inhibition (INH)” value (against Cytochrome P450 1A; in the data set on Cytochrome P450; in data set [10]) was “Not Active” throughout. For the same compound, the logP in data set [6] worked out at 2.94. Moreover, in the data set listed under Danio rerio [16], the outcome was inactive.
